Laboratory results reported in ChEMBL document CHEMBL1201862, “PubChem BioAssay data set” (2004).
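Where inhibition never reached the appropriate level, the endpoint shown equals the highest concentration tested. Otherwise, values were interpolated linearly from a five-concentration, 48-hour dose response in 96-well plates. At the GI50, growth is halved.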 Calls of active or inactive are those of the source. Rule as the data show it: active = GI50 up to about 1.1 µM and inactive = higher.

Columns and labels:
Assay in all cases: NCI tumour cell line growth inhibition, 48 h
786-0 = tested on: 786-0
BT-549 = tested on: BT-549
EKVX = tested on: EKVX
HCC 2998 = tested on: HCC 2998
HOP-92 = tested on: HOP-92
K562 = tested on: K562
KM12 = tested on: KM12
M14 = tested on: M14
MOLT-4 = tested on: MOLT-4
NCI-H23 = tested on: NCI-H23
OVCAR-3 = tested on: OVCAR-3
OVCAR-4 = tested on: OVCAR-4
SF-295 = tested on: SF-295
SF-539 = tested on: SF-539
SK-MEL-28 = tested on: SK-MEL-28
SK-MEL-2 = tested on: SK-MEL-2
SW-620 = tested on: SW-620
T47D = tested on: T47D
U-251 = tested on: U-251
UACC-62 = tested on: UACC-62

SMILES | GI50 (786-0) | GI50 (BT-549) | GI50 (EKVX) | GI50 (HCC 2998) | GI50 (HOP-92) | GI50 (K562) | GI50 (KM12) | GI50 (M14) | GI50 (MOLT-4) | GI50 (NCI-H23) | GI50 (OVCAR-3) | GI50 (OVCAR-4) | GI50 (SF-295) | GI50 (SF-539) | GI50 (SK-MEL-28) | GI50 (SK-MEL-2) | GI50 (SW-620) | GI50 (T47D) | GI50 (U-251) | GI50 (UACC-62)
O=C1CCc2c3c(c4c([nH]c5ccccc54)c2CC1)C(=O)NC3=O | 11.7 µM (inactive) | 7.46 µM (inactive) | 11.1 µM (inactive) | 27.9 µM (inactive) | 18.6 µM (inactive) | 1.19 µM (inactive) | 0.0942 µM (active) | 5.05 µM (inactive) | 0.774 µM (active) | 8.93 µM (inactive) | 3.51 µM (inactive) | 2.08 µM (inactive) | 6.01 µM (inactive) | 5.36 µM (inactive) | 3.14 µM (inactive) | 2.7 µM (inactive) | 0.815 µM (active) | 1.46 µM (inactive) | 4.55 µM (inactive) | 4.45 µM (inactive)
CC1=C(C)C(=O)O[C@@H]([C@](C)(O)[C@]2(O)CC[C@@]3(O)[C@@H]4C[C@H](O)[C@]5(O)[C@@H](O)C=CC(=O)[C@]5(C)[C@H]4CC[C@]23C)C1 | > 100 µM (inactive) | > 100 µM (inactive) | > 100 µM (inactive) | > 100 µM (inactive) | > 100 µM (inactive) | 67.3 µM (inactive) | > 100 µM (inactive) | > 100 µM (inactive) | > 100 µM (inactive) | > 100 µM (inactive) | > 100 µM (inactive) | > 100 µM (inactive) | > 100 µM (inactive) | > 100 µM (inactive) | > 100 µM (inactive) | > 100 µM (inactive) | > 100 µM (inactive) | > 100 µM (inactive) | 89.9 µM (inactive) | 47.6 µM (inactive)
Cc1cc(C)nc(NS(=O)(=O)c2ccc(Nc3c4ccccc4nc4ccc(C(=O)Nc5ccc(S(=O)(=O)N=C(N)N)cc5)cc34)cc2)n1 | 23.3 µM (inactive) | 30.5 µM (inactive) | > 100 µM (inactive) | > 100 µM (inactive) | 26 µM (inactive) | 25.2 µM (inactive) | > 100 µM (inactive) | > 100 µM (inactive) | 32.3 µM (inactive) | > 100 µM (inactive) | 43.4 µM (inactive) | 55.3 µM (inactive) | > 100 µM (inactive) | > 100 µM (inactive) | > 100 µM (inactive) | > 100 µM (inactive) | 48.4 µM (inactive) | 38.2 µM (inactive) | 60.7 µM (inactive) | > 100 µM (inactive)
CCOC(=O)C1=C(N)N2C(=N[C@H]3CCCC[C@@H]32)N=C1 | > 100 µM (inactive) | > 100 µM (inactive) | > 100 µM (inactive) | > 100 µM (inactive) | > 100 µM (inactive) | > 100 µM (inactive) | > 100 µM (inactive) | > 100 µM (inactive) | > 100 µM (inactive) | > 100 µM (inactive) | > 100 µM (inactive) | 37 µM (inactive) | > 100 µM (inactive) | > 100 µM (inactive) | > 100 µM (inactive) | > 100 µM (inactive) | > 100 µM (inactive) | > 100 µM (inactive) | > 100 µM (inactive) | > 100 µM (inactive)
CN(C)c1ccc(/C=C/c2ccnc3ccccc23)cc1 | 89.7 µM (inactive) | 18.2 µM (inactive) | 49 µM (inactive) | > 100 µM (inactive) | 93.3 µM (inactive) | 33.5 µM (inactive) | 55.8 µM (inactive) | 65.8 µM (inactive) |  | 39.4 µM (inactive) | > 100 µM (inactive) | 55.6 µM (inactive) | 54.7 µM (inactive) | > 100 µM (inactive) | 72.6 µM (inactive) | 58.2 µM (inactive) | 39.4 µM (inactive) | 96.8 µM (inactive) | 84.7 µM (inactive) | 43.1 µM (inactive)
CC(=O)OC(C)(C)/C=C/C(=O)[C@](C)(O)[C@H]1[C@H](O)C[C@@]2(C)[C@@H]3CC=C4[C@@H](C[C@H](O)C(=O)C4(C)C)[C@]3(C)C(=O)C[C@]12C | < 0.01 µM (active) | < 0.01 µM (active) | 0.0102 µM (active) | < 0.01 µM (active) | 0.0175 µM (active) | < 0.01 µM (active) | 1.4 µM (inactive) | < 0.01 µM (active) | 0.167 µM (active) | 0.0873 µM (active) | < 0.01 µM (active) | < 0.01 µM (active) | < 0.01 µM (active) | < 0.01 µM (active) | < 0.01 µM (active) | < 0.01 µM (active) | < 0.01 µM (active) | 0.0362 µM (active) | < 0.01 µM (active) | < 0.01 µM (active)
CN(C)/N=N/c1[nH]cnc1C(N)=O [DACARBAZINE] | 87.9 µM (inactive) | 51.3 µM (inactive) |  | 45.8 µM (inactive) | 30.3 µM (inactive) | 16 µM (inactive) | 92.7 µM (inactive) | 27.2 µM (inactive) | 20.7 µM (inactive) | 93.8 µM (inactive) | 55.3 µM (inactive) | 34.8 µM (inactive) | 55.1 µM (inactive) | 65.6 µM (inactive) | 86.5 µM (inactive) | 9.82 µM (inactive) | 55.1 µM (inactive) | > 92.3 µM (inactive) | 92 µM (inactive) | 35.3 µM (inactive)
CN(C)CCOc1ccc2[nH]c(C(=O)N3CC(CCl)c4ccc(N)cc43)cc2c1 (stereo not given) | 0.0687 µM (active) | 0.192 µM (active) | 0.231 µM (active) | 0.0535 µM (active) | 0.36 µM (active) | 0.0533 µM (active) | 0.0733 µM (active) | 0.145 µM (active) | < 0.01 µM (active) | 0.0562 µM (active) | 0.0631 µM (active) | 0.0703 µM (active) | 0.0885 µM (active) | 0.385 µM (active) | 0.126 µM (active) | 0.0653 µM (active) | 0.121 µM (active) | 0.0424 µM (active) | 0.0912 µM (active) | 0.0753 µM (active)
COc1ccc(/C=N/n2c(Cc3ccc(Cl)cc3)n[nH]c2=O)cc1 | 17.7 µM (inactive) | 32.4 µM (inactive) | 30.1 µM (inactive) | > 100 µM (inactive) | 17.3 µM (inactive) | > 100 µM (inactive) | > 100 µM (inactive) | 45.7 µM (inactive) | > 100 µM (inactive) | 22 µM (inactive) | > 100 µM (inactive) | > 100 µM (inactive) | 19.8 µM (inactive) | 22.1 µM (inactive) | > 100 µM (inactive) | 21.6 µM (inactive) | > 100 µM (inactive) | 54.1 µM (inactive) | 14.3 µM (inactive) | 52.2 µM (inactive)
Cc1cc2c(cc1C)C(=O)/C(=N/Nc1ccc(F)cc1)CCO2 | > 100 µM (inactive) | > 100 µM (inactive) | > 100 µM (inactive) | > 100 µM (inactive) | > 100 µM (inactive) | > 100 µM (inactive) | > 100 µM (inactive) | 87.5 µM (inactive) | > 100 µM (inactive) | > 100 µM (inactive) | > 100 µM (inactive) | > 100 µM (inactive) | 27.1 µM (inactive) | > 100 µM (inactive) | > 100 µM (inactive) | 20.4 µM (inactive) | > 100 µM (inactive) | 5.04 µM (inactive) | > 100 µM (inactive) | > 100 µM (inactive)
CC(=O)N(C(=O)CC(=O)NNCc1ccccc1Cl)c1ccc(Cl)cc1 | > 10 µM (inactive) | > 10 µM (inactive) | 4.99 µM (inactive) | > 10 µM (inactive) | > 10 µM (inactive) | > 10 µM (inactive) | > 10 µM (inactive) | > 10 µM (inactive) | > 10 µM (inactive) | > 10 µM (inactive) | > 10 µM (inactive) | > 10 µM (inactive) | > 10 µM (inactive) | > 10 µM (inactive) | > 10 µM (inactive) | > 10 µM (inactive) |  | 8.11 µM (inactive) | > 10 µM (inactive) | > 10 µM (inactive)
COc1ccc([N+](=O)[O-])c2c(NCCCN(C)C)c3ccccc3nc12 | 0.0778 µM (active) | 0.701 µM (active) | 0.107 µM (active) | < 0.0319 µM (active) | 0.0782 µM (active) | 0.133 µM (active) | 0.0991 µM (active) | 0.183 µM (active) | 0.0326 µM (active) | 0.0625 µM (active) | 0.125 µM (active) | 0.0354 µM (active) | 0.107 µM (active) | 0.308 µM (active) | 3 µM (inactive) | 0.131 µM (active) | 0.0929 µM (active) | 0.2 µM (active) | 0.152 µM (active) | 0.127 µM (active)
OCC1OC(c2cccc3cc(O)c(O)cc23)CC1O (stereo not given) | > 100 µM (inactive) | > 100 µM (inactive) | 45.4 µM (inactive) | > 100 µM (inactive) | > 100 µM (inactive) | > 100 µM (inactive) | > 100 µM (inactive) | > 100 µM (inactive) | > 100 µM (inactive) |  | 94.8 µM (inactive) | > 100 µM (inactive) | > 100 µM (inactive) | > 100 µM (inactive) | > 100 µM (inactive) | > 100 µM (inactive) | > 100 µM (inactive) | > 100 µM (inactive) | > 100 µM (inactive) | > 100 µM (inactive)
CN(C)c1ccc2oc(=O)c3ccccc3c2c1 | 30.5 µM (inactive) | 34.4 µM (inactive) | 20.4 µM (inactive) | > 100 µM (inactive) | 35.2 µM (inactive) | > 100 µM (inactive) |  | > 100 µM (inactive) | > 100 µM (inactive) | 22.9 µM (inactive) | > 100 µM (inactive) | > 100 µM (inactive) | 28.8 µM (inactive) | 33.1 µM (inactive) | > 100 µM (inactive) | 33.7 µM (inactive) | > 100 µM (inactive) | > 100 µM (inactive) | 25.3 µM (inactive) | 99.8 µM (inactive)
